Test results taken from patent US20160362393A1, “EN[…] AGENT” (THE UNIVERSITY OF TOKYO, priority 2014, published 2016).

Each compound was assayed on 1st-stage larvae of Haemonchus contortus (assay: Test for effect on motion of larvae of Haemonchus nematode (Haemonchus contortus)). Conditions: 20 larvae per well, 27° C./95% RH for 4 days, corrected for DMSO negative control, duplicate.
Format: cell-based
Procedure: Test for Effect on Motion of Larvae of Haemonchus Nematode (Haemonchus contortus)
The compound of the present invention was prepared as solutions in 100% DMSO at the final concentrations of 50 ppm, 5 ppm, 0.5 ppm, 0.05 ppm and 0.005 ppm. DMSO stands for dimethyl sulfoxide.
A larval suspension containing 1st-stage larvae of Haemonchus contortus harvested by the Baermann technique (for example, see K. Nakazono et al., “Inclination of Baermann funnel wall and efficiency of nematode extraction” Proc. Assoc. Pl. Prot. Kyushu 33; 126-130 (1987) was placed at a density of 20 larvae per well in a test place, and 0.5 μL/well of the test solution containing the compound of the present invention diluted to a predetermined concentration was added to the test plate. The plate was kept, under the conditions of 27° C./95% RH for 4 days. In the test, ivermectin was used for the positive control and DMSO was used for the negative control.
The motor ability of the larvae was examined with an automatic analyzer equipped with an LCD camera. The inhibitory effect on the motion of the larvae in each treatment plot was corrected based on the inhibitory effect in the plot treated with DMSO only for the negative control. The EC50 value was calculated from the data on the corrected inhibitory effect on the motion of the larvae, and graded according to the criteria shown below.
The test was conducted in duplicate per plot.
In the case of CC(CNC(=O)c1nccnc1C(F)(F)F)c1ccc(Oc2ncc(C(F)(F)F)cc2Cl)cc1Cl (racemic) [Compound 1-22], the “EC50 value, inhibitory effect on the motion of the larvae (graded)” value (“EC50 value, inhibitory effect” below) is reported as “C or higher”.
With CC(CNC(=O)c1nccnc1C(F)(F)F)c1ccc(Oc2ccc(C(F)(F)F)cn2)cc1Cl (racemic) [Compound 1-23] the “EC50 value, inhibitory effect” value was “C or higher”.
With CC(CNC(=O)c1nccnc1C(F)(F)F)c1ccc(Oc2ncc(Cl)cc2Cl)cc1Cl (racemic) [Compound 1-24] the “EC50 value, inhibitory effect” value was “C or higher”.
With COC(CNC(=O)c1nccnc1C(F)(F)F)c1ccc(Oc2ncc(C(F)(F)F)cc2Cl)cc1Cl (racemic) [Compound 1-38] the “EC50 value, inhibitory effect” value was “C or higher”.
With COC(CNC(=O)c1nccnc1C(F)(F)F)c1ccc(Oc2ccc(C(F)(F)F)cn2)cc1Cl (racemic) [Compound 1-39] the “EC50 value, inhibitory effect” value was “C or higher”.
In the case of COC(CNC(=O)c1nccnc1C(F)(F)F)c1ccc(Oc2ncc(Cl)cc2Cl)cc1Cl (racemic) [Compound 1-40], the “EC50 value, inhibitory effect” value is reported as “C or higher”.
COC(CNC(=O)c1nccnc1C(F)(F)F)c1ccc(Oc2nc3ccccc3s2)cc1Cl (racemic) [Compound 1-41] was tested, and the “EC50 value, inhibitory effect” value was “C or higher”.
For COC(CNC(=O)c1nccnc1C(F)(F)F)c1ccc(Oc2cccnc2)cc1Cl (racemic) [Compound 1-45], the “EC50 value, inhibitory effect” value was “C or higher”.
In the case of O=C(NCCc1ccc(Oc2ccc(C(F)(F)F)cn2)cc1Cl)c1nccnc1C(F)(F)F [Compound 1-2], the “EC50 value, inhibitory effect” value is reported as “C or higher”.
In the case of O=C(NCCc1ccc(Oc2ncc(Cl)cc2Cl)cc1Cl)c1nccnc1C(F)(F)F [Compound 1-3], the “EC50 value, inhibitory effect” value is reported as “C or higher”.
In the case of O=C(NCCc1ccc(Oc2ncc(Br)cc2Cl)cc1Cl)c1nccnc1C(F)(F)F [Compound 1-4], the “EC50 value, inhibitory effect” value is reported as “C or higher”.
In the case of O=C(NCCc1ccc(Oc2cnccn2)cc1Cl)c1nccnc1C(F)(F)F [Compound 1-7], the “EC50 value, inhibitory effect” value is reported as “C or higher”.
COc1cc(OC)nc(Oc2ccc(CCNC(=O)c3nccnc3C(F)(F)F)c(Cl)c2)n1 [Compound 1-8] was tested, and the “EC50 value, inhibitory effect” value was “C or higher”.
In the case of O=C(NCCc1ccc(Oc2ccnc(Cl)n2)cc1Cl)c1nccnc1C(F)(F)F [Compound 1-10], the “EC50 value, inhibitory effect” value is reported as “C or higher”.
In the case of O=C(NCCc1ccc(Oc2cc(Cl)nc(Cl)n2)cc1Cl)c1nccnc1C(F)(F)F [Compound 1-11], the “EC50 value, inhibitory effect” value is reported as “C or higher”.
With Cc1cc(Oc2ccc(CCNC(=O)c3nccnc3C(F)(F)F)c(Cl)c2)nc(Cl)n1 [Compound 1-12] the “EC50 value, inhibitory effect” value was “C or higher”.
Cc1cnc(Cl)nc1Oc1ccc(CCNC(=O)c2nccnc2C(F)(F)F)c(Cl)c1 [Compound 1-13] was tested, and the “EC50 value, inhibitory effect” value was “C or higher”.
For O=C(NCCc1ccc(Oc2ccc3ccccc3n2)cc1Cl)c1nccnc1C(F)(F)F [Compound 1-15], the “EC50 value, inhibitory effect” value was “C or higher”.
In the case of O=C(NCCc1ccc(Oc2cnc3ccccc3n2)cc1Cl)c1nccnc1C(F)(F)F [Compound 1-16], the “EC50 value, inhibitory effect” value is reported as “C or higher”.
O=C(NCCc1ccc(Oc2nc3ccccc3s2)cc1Cl)c1nccnc1C(F)(F)F [Compound 1-17] was tested, and the “EC50 value, inhibitory effect” value was “C or higher”.
With O=C(NCCc1ccc(Oc2nc3ccc(Cl)cc3s2)cc1Cl)c1nccnc1C(F)(F)F [Compound 1-18] the “EC50 value, inhibitory effect” value was “C or higher”.
In the case of O=C(NCCc1ccc(Oc2nc3ccccc3o2)cc1Cl)c1nccnc1C(F)(F)F [Compound 1-19], the “EC50 value, inhibitory effect” value is reported as “C or higher”.
O=C(NCCc1ccc(Oc2ccc(C(F)(F)F)cc2)cc1Cl)c1nccnc1C(F)(F)F [Compound 1-21] was tested, and the “EC50 value, inhibitory effect” value was “C or higher”.
CC(C)(CNC(=O)c1nccnc1C(F)(F)F)c1ccc(Oc2ncc(C(F)(F)F)cc2Cl)cc1Cl [Compound 1-25] was tested, and the “EC50 value, inhibitory effect” value was “C or higher”.
With CC(C)(CNC(=O)c1nccnc1C(F)(F)F)c1ccc(Oc2ccc(C(F)(F)F)cn2)cc1Cl [Compound 1-26] the “EC50 value, inhibitory effect” value was “C or higher”.
For CC(C)(CNC(=O)c1nccnc1C(F)(F)F)c1ccc(Oc2ncc(Cl)cc2Cl)cc1Cl [Compound 1-27], the “EC50 value, inhibitory effect” value was “C or higher”.
In the case of O=C(NCC1(c2ccc(Oc3ncc(C(F)(F)F)cc3Cl)cc2Cl)CC1)c1nccnc1C(F)(F)F [Compound 1-28], the “EC50 value, inhibitory effect” value is reported as “C or higher”.
For O=C(NCC1(c2ccc(Oc3ccc(C(F)(F)F)cn3)cc2Cl)CC1)c1nccnc1C(F)(F)F [Compound 1-29], the “EC50 value, inhibitory effect” value was “C or higher”.
For O=C(NCC1(c2ccc(Oc3ncc(Cl)cc3Cl)cc2Cl)CC1)c1nccnc1C(F)(F)F [Compound 1-30], the “EC50 value, inhibitory effect” value was “C or higher”.
In the case of O=C(NCCc1ccc(-c2ccc(C(F)(F)F)cc2)cc1Cl)c1nccnc1C(F)(F)F [Compound 1-31], the “EC50 value, inhibitory effect” value is reported as “C or higher”.
For O=C(NCCc1ccc(-c2cccc(C(F)(F)F)c2)cc1Cl)c1nccnc1C(F)(F)F [Compound 1-32], the “EC50 value, inhibitory effect” value was “C or higher”.
In the case of O=C(NCCc1ccc(-c2cc(F)cc(F)c2)cc1Cl)c1nccnc1C(F)(F)F [Compound 1-33], the “EC50 value, inhibitory effect” value is reported as “C or higher”.
In the case of O=C(NCCc1ccc(-c2ccccc2)cc1Cl)c1nccnc1C(F)(F)F [Compound 1-35], the “EC50 value, inhibitory effect” value is reported as “C or higher”.
In the case of O=C(NCCc1ccc(-c2ccncc2)cc1Cl)c1nccnc1C(F)(F)F [Compound 1-36], the “EC50 value, inhibitory effect” value is reported as “C or higher”.
With O=C(NCCc1ccc(-c2cccnc2)cc1Cl)c1nccnc1C(F)(F)F [Compound 1-37] the “EC50 value, inhibitory effect” value was “C or higher”.
